Source: patent US20240116985A1, “STAPLED PEPTIDES AND METHODS THEREOF” (priority 2020, published 2024)
Values after ≈ are worked out from the molar mass of the structure shown. Like-named read-outs stand apart in the source and are kept apart here.

Assays:
[1] = target: T1, full-length beta-Catenin (Uniprot ID P35222) (Homo sapiens, UniProt P35222); assay: Fluorescence polarization IC50 (beta-catenin / 5FAM-TCF4 10-53 competition); type: binding; conditions: fluorescence polarization; read-out: beta-Catenin FP IC50
T1 construct: 10 nM full-length beta-Catenin (Uniprot ID P35222)
T1 sequence (P35222 1-781): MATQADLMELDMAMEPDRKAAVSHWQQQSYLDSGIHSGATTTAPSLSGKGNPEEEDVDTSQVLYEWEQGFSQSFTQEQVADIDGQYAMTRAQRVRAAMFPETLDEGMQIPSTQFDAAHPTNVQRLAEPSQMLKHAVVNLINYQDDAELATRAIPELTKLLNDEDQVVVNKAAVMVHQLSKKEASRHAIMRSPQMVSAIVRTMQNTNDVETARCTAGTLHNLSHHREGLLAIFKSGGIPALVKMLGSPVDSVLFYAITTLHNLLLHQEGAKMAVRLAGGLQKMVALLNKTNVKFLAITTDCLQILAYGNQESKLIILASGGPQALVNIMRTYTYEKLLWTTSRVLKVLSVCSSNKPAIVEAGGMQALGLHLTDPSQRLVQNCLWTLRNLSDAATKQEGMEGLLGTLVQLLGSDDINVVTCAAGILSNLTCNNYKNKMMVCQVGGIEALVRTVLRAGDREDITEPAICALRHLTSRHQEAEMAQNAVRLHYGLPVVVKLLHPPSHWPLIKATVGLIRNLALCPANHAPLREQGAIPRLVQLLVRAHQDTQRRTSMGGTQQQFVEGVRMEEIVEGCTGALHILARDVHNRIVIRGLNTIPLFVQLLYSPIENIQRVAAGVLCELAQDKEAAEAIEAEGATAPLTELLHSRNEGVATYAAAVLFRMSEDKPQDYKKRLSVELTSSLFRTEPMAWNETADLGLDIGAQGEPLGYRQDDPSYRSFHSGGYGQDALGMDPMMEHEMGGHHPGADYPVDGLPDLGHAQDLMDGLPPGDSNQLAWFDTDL

Solubility in PBS = type: physicochemical
Summary of the method: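 Read-out is the HPLC peak area of the supernatant from ultracentrifuged PBS solution, scaled against a 50 μM peptide DMSO injection; value reported as [(PBS area)/(DMSO area)]*50 uM.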

[2] = target: T2, beta-catenin/TCF4 engagement (Homo sapiens, UniProt P35222); assay: Nano-BRET target engagement assay (B-cat-Halo & TCF4-Luc in HEK293 cells); type: cell-based; conditions: absolute IC50; read-out: NanoBRET Abs IC50
T2 construct: expressed in transfected cells; host or cells: HEK293
T2 sequence (P35222 1-781): T1 sequence (P35222 1-781)

IC50 [1] [nM]	Solubility (Solubility in PBS) [µM]	IC50 [2] [nM]	Solubility (Solubility in PBS; Solubility (uM)) [µM]	SMILES
26	10 (≈ 20 µg/mL)	38600		CC(=O)N1CCC[C@]12CC=CCCCC1(CCCC=CCCCOC(=O)N3CC[C@@](C(=O)N[C@@H](Cc4ccccc4Cl)C(=O)N[C@@H](Cc4csc5ccccc45)C(=O)N[C@@H](CC(C)C)C(N)=O)(C3)NC(=O)[C@H](CCCCNC(C)C)NC(=O)[C@H](Cc3ccccc3)NC(=O)[C@H](C)NC(=O)[C@H](C)NC(=O)[C@H](CCC(=O)O)NC(=O)[C@H](CC(=O)O)NC1=O)NC(=O)[C@H](CC(C)(C)C)NC(=O)[C@H](CC(=O)O)NC2=O (stereo partly drawn) [I-1283, Ac-PL3-Asp-Npg-B5-Asp-Glu-Ala-Ala-Phe-iPrLys-PyrS2-2C1F-BztA-Leu-NH2]
86		9100	28 (≈ 53.5 µg/mL)	CC(=O)N1CCC[C@]12CC=CCCCC1(CCCC=CCCCOC(=O)N3CC[C@@](C(=O)N[C@@H](Cc4ccsc4)C(=O)N[C@@H](Cc4csc5ccccc45)C(=O)N[C@H](CO)[C@@H](C)O)(C3)NC(=O)[C@H](Cc3ccccc3)NC(=O)[C@H](Cc3ccccc3)NC(=O)[C@H](C)NC(=O)[C@H](C)NC(=O)[C@H](CC(=O)O)NC(=O)[C@H](CC(=O)O)NC1=O)NC(=O)[C@H](CC(C)(C)C)NC(=O)[C@H](CC(=O)O)NC2=O (stereo partly drawn) [I-1303, Ac-PL3-Asp-Npg-B5-Asp-Asp-Ala-Ala-Phe-Phe-PyrS2-3Thi-BztA-Thro1]
31	10 (≈ 18.8 µg/mL)	33600		CC(=O)N1CCC[C@]12CC=CCCCC1(CCCC=CCCCOC(=O)N3CC[C@@](C(=O)N[C@@H](Cc4ccsc4)C(=O)N[C@@H](Cc4csc5ccccc45)C(=O)N[C@H](CO)[C@@H](C)O)(C3)NC(=O)[C@H](CC(C)C)NC(=O)[C@H](Cc3ccccc3)NC(=O)[C@H](C)NC(=O)[C@H](C)NC(=O)[C@H](CC(=O)O)NC(=O)[C@H](CC(=O)O)NC1=O)NC(=O)[C@H](CC(C)(C)C)NC(=O)[C@H](CC(N)=O)NC2=O (stereo partly drawn) [I-1304, Ac-PL3-Asn-Npg-B5-Asp-Asp-Ala-Ala-Phe-Leu-PyrS2-3Thi-BztA-Thro1]
6		9700	49 (≈ 91.4 µg/mL)	CC(=O)N1CCC[C@]12CC=CCCCC1(CCCC=CCCCOC(=O)N3CC[C@@](C(=O)N[C@@H](Cc4ccsc4)C(=O)N[C@@H](Cc4csc5ccccc45)C(=O)N[C@H](CO)[C@@H](C)O)(C3)NC(=O)[C@H](CCO)NC(=O)[C@H](Cc3ccccc3)NC(=O)[C@H](C)NC(=O)[C@H](C)NC(=O)[C@H](CC(=O)O)NC(=O)[C@H](CC(=O)O)NC1=O)NC(=O)[C@H](CC(C)(C)C)NC(=O)[C@H](CC(=O)O)NC2=O (stereo partly drawn) [I-1305, Ac-PL3-Asp-Npg-B5-Asp-Asp-Ala-Ala-Phe-Hse-PyrS2-3Thi-BztA-Thro1]
25		11900	47 (≈ 87 µg/mL)	CC(=O)N1CCC[C@]12CC=CCCCC1(CCCC=CCCCCCC[C@@](C)(C(=O)N[C@@H](Cc3ccccc3Cl)C(=O)N[C@@H](Cc3csc4ccccc34)C(=O)N[C@H](CO)[C@@H](C)O)NC(=O)[C@H]([C@@H](C)O)NC(=O)[C@H](Cc3ccccc3)NC(=O)[C@H](C)NC(=O)[C@H](C)NC(=O)[C@H](CC(=O)O)NC(=O)[C@H](CC(=O)O)NC1=O)NC(=O)[C@H](CC(C)(C)C)NC(=O)[C@H](CC(=O)O)NC2=O (stereo partly drawn) [I-1308, Ac-PL3-Asp-Npg-B5-Asp-Asp-Ala-Ala-Phe-Thr-S8-2C1F-BztA-Thro1]
59	10 (≈ 18.8 µg/mL)	28600		CC(=O)N1CCC[C@]12CC=CCCCC1(CCCC=CCCCOC(=O)N3CC[C@@](C(=O)N[C@@H](Cc4ccccc4Cl)C(=O)N[C@@H](Cc4csc5ccccc45)C(=O)N[C@H](CO)[C@@H](C)O)(C3)NC(=O)[C@H]([C@@H](C)O)NC(=O)[C@H](Cc3ccccc3)NC(=O)[C@H](C)NC(=O)[C@H](C)NC(=O)[C@H]([C@@H](C)O)NC(=O)[C@H](CC(=O)O)NC1=O)NC(=O)[C@H](CC(C)(C)C)NC(=O)[C@H](CC(=O)O)NC2=O (stereo partly drawn) [I-1309, Ac-PL3-Asp-Npg-B5-Asp-Thr-Ala-Ala-Phe-Thr-PyrS2-2C1F-BztA-Thro1]
124	10 (≈ 19.1 µg/mL)	> 20000		CC(=O)N1CCC[C@]12CC=CCCCC1(CCCC=CCCCOC(=O)N3CC[C@@](C(=O)N[C@@H](Cc4ccccc4Cl)C(=O)N[C@@H](Cc4csc5ccccc45)C(=O)N[C@H](CO)[C@@H](C)O)(C3)NC(=O)[C@H]([C@@H](C)O)NC(=O)[C@H](Cc3ccccc3)NC(=O)[C@H](C)NC(=O)[C@H](C)NC(=O)[C@H]([C@@H](C)O)NC(=O)[C@H](CC(=O)O)NC1=O)NC(=O)[C@H](CC1CCCCC1)NC(=O)[C@H](CC(=O)O)NC2=O (stereo partly drawn) [I-1310, Ac-PL3-Asp-Cha-B5-Asp-Thr-Ala-Ala-Phe-Thr-PyrS2-2ClF-BztA-Thro1]
38	10 (≈ 19.4 µg/mL)	20600		CC(=O)N1CCC[C@]12CC=CCCCC1(CCCC=CCCCOC(=O)N3CC[C@@](C(=O)N[C@@H](Cc4ccccc4Cl)C(=O)N[C@@H](Cc4csc5ccccc45)C(=O)N[C@H](CO)[C@@H](C)O)(C3)NC(=O)[C@H](Cc3ccccc3)NC(=O)[C@H](Cc3ccccc3)NC(=O)[C@H](C)NC(=O)[C@H](C)NC(=O)[C@H](CC(=O)O)NC(=O)[C@H](CC(=O)O)NC1=O)NC(=O)[C@H](CC(C)(C)C)NC(=O)[C@H](CC(=O)O)NC2=O (stereo partly drawn) [I-1311, Ac-PL3-Asp-Npg-B5-Asp-Asp-Ala-Ala-Phe-Phe-PyrS2-2C1F-BztA-Thro1]
14		16100	46 (≈ 88.3 µg/mL)	CC(=O)N1CCC[C@]12CC=CCCCC1(CCCC=CCCCOC(=O)N3CC[C@@](C(=O)N[C@@H](Cc4ccccc4Cl)C(=O)N[C@@H](Cc4csc5ccccc45)C(=O)N[C@H](CO)[C@@H](C)O)(C3)NC(=O)[C@H]([C@@H](C)O)NC(=O)[C@H](Cc3ccccc3)NC(=O)[C@H](C)NC(=O)[C@H](C)NC(=O)[C@H](CC(=O)O)NC(=O)[C@H](CC(=O)O)NC1=O)NC(=O)[C@H](CC1CCCCC1)NC(=O)[C@H](CC(=O)O)NC2=O (stereo partly drawn) [I-1312, Ac-PL3-Asp-Cha-B5-Asp-Asp-Ala-Ala-Phe-Thr-PyrS2-2C1F-BztA-Thro1]
9		> 20000	48 (≈ 93.8 µg/mL)	CC(=O)N1CCC[C@]12CC=CCCCC1(CCCC=CCCCOC(=O)N3CC[C@@](C(=O)N[C@@H](Cc4ccccc4C(N)=O)C(=O)N[C@@H](Cc4csc5ccccc45)C(=O)N[C@@H](CCC(N)=O)C(N)=O)(C3)NC(=O)[C@H](CC(N)=O)NC(=O)[C@H](Cc3ccccc3)NC(=O)[C@H](C)NC(=O)[C@H](C)NC(=O)[C@H](CC(=O)O)NC(=O)[C@H](CC(=O)O)NC1=O)NC(=O)[C@H](CC(C)(C)C)NC(=O)[C@H](CC(=O)O)NC2=O (stereo partly drawn) [I-1314, Ac-PL3-Asp-Npg-B5-Asp-Asp-Ala-Ala-Phe-Asn-PyrS2-2cbmF-BztA-Gln-NH2]
13	10 (≈ 19.5 µg/mL)	7200		CC(=O)N1CCC[C@]12CC=CCCCC1(CCCC=CCCCOC(=O)N3CC[C@@](C(=O)N[C@@H](Cc4ccccc4C(N)=O)C(=O)N[C@@H](Cc4csc5ccccc45)C(=O)N[C@@H](CCC(N)=O)C(N)=O)(C3)NC(=O)[C@H](CC(C)C)NC(=O)[C@H](Cc3ccccc3)NC(=O)[C@H](C)NC(=O)[C@H](C)NC(=O)[C@H](CC(=O)O)NC(=O)[C@H](CC(=O)O)NC1=O)NC(=O)[C@H](CC(C)(C)C)NC(=O)[C@H](CC(=O)O)NC2=O (stereo partly drawn) [I-1315, Ac-PL3-Asp-Npg-B5-Asp-Asp-Ala-Ala-Phe-Leu-PyrS2-2cbmF-BztA-Gln-NH2]
11		6800	48 (≈ 95.4 µg/mL)	CC(=O)N1CCC[C@]12CC=CCCCC1(CCCC=CCCCOC(=O)N3CC[C@@](C(=O)N[C@@H](Cc4ccccc4C(N)=O)C(=O)N[C@@H](Cc4csc5ccccc45)C(=O)N[C@@H](CCC(N)=O)C(N)=O)(C3)NC(=O)[C@H](Cc3ccccc3)NC(=O)[C@H](Cc3ccccc3)NC(=O)[C@H](C)NC(=O)[C@H](C)NC(=O)[C@H](CC(=O)O)NC(=O)[C@H](CC(=O)O)NC1=O)NC(=O)[C@H](CC(C)(C)C)NC(=O)[C@H](CC(=O)O)NC2=O (stereo partly drawn) [I-1316, Ac-PL3-Asp-Npg-B5-Asp-Asp-Ala-Ala-Phe-Phe-PyrS2-2cbmF-BztA-Gln-NH2]
9		9700	49 (≈ 97 µg/mL)	CC(=O)N1CCC[C@]12CC=CCCCC1(CCCC=CCCCOC(=O)N3CC[C@@](C(=O)N[C@@H](Cc4ccccc4C(F)(F)F)C(=O)N[C@@H](Cc4csc5ccccc45)C(=O)N[C@@H](CCC(N)=O)C(N)=O)(C3)NC(=O)[C@H](CC(N)=O)NC(=O)[C@H](Cc3ccccc3)NC(=O)[C@H](C)NC(=O)[C@H](C)NC(=O)[C@H](CC(=O)O)NC(=O)[C@H](CC(=O)O)NC1=O)NC(=O)[C@H](CC(C)(C)C)NC(=O)[C@H](CC(=O)O)NC2=O (stereo partly drawn) [I-1317, Ac-PL3-Asp-Npg-B5-Asp-Asp-Ala-Ala-Phe-Asn-PyrS2-2F3MeF-BztA-Gln-NH2]
